PMC7429951 (Journal of Medicinal Chemistry, 2020)

What was measured:
[1] = biological target: peptidase domain of ColH (ColH-PD) (Hathewaya histolytica, UniProt Q46085); assay: biochemical; design: species or system Clostridium histolyticum
[2] = biological target: peptidase domain of ColT (ColT-PD) (Clostridium tetani, UniProt Q899Y1); assay: biochemical; design: species or system C. tetani; conditions: read-out: ColT-PD % inhibition @ 100 μM
MMP-2 = biological target: T1, MMP-2 (Homo sapiens, UniProt P08253); assay: MMP-2 off-target inhibition; format: biochemical
T1 sequence (P08253 110-660): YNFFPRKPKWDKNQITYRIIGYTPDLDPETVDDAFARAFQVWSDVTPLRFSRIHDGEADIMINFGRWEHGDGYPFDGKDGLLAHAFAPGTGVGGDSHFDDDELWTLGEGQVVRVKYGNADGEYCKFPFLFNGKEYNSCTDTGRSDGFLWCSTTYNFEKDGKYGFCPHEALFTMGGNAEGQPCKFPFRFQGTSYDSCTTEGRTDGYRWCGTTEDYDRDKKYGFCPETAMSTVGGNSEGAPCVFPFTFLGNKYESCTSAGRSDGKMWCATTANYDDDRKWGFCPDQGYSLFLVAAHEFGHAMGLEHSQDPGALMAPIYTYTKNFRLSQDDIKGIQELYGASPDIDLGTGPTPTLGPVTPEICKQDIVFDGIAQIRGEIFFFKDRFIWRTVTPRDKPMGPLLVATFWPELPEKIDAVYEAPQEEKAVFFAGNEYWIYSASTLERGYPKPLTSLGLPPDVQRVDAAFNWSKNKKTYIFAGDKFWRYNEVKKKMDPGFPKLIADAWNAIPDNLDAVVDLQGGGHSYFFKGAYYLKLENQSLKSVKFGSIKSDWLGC
Excerpt: (§1) Previously, we described N-aryl mercaptoacetamides with high selectivity for the bacterial over a broad range of human MMPs.[29],[30] MMPs are calcium-dependent zinc metalloproteases that play a pivotal role in numerous biochemical processes in humans.[39],[40] Based on the depth of their S1′ binding pocket, MMPs can be divided into three classes: deep (e.g., MMP-3 and -14), intermediate (e.g., MMP-2 and -8), and shallow (e.g., MMP-1 and -7). With the aim to explore the interactions of our inhibitors with all three pocket types, which could help us to assess potential effects on other not-tested representatives, we chose a panel of six MMPs, comprising two members of each class. In addition, HDAC-3, HDAC-8, and TACE (ADAM-17)—enzymes involved in gene expression and the processing of TNF-α,[41],[42] respectively—were selected as important additional human off-targets.

MMP-8 = MMP-8 (Homo sapiens, UniProt P22894); assay: MMP-8 off-target inhibition; format: biochemical
Excerpt: as §1

MMP-14 = MMP-14 (Homo sapiens, UniProt P50281); assay: MMP-14 off-target inhibition; format: biochemical
Excerpt: as §1

HDAC-8 = biological target: T2, HDAC-8 (Homo sapiens, UniProt Q9BY41); assay: HDAC-8 inhibitor screening kit; format: biochemical
T2 construct: purchased Sigma-Aldrich (Saint Louis, MO)
T2 sequence (Q9BY41 1-377): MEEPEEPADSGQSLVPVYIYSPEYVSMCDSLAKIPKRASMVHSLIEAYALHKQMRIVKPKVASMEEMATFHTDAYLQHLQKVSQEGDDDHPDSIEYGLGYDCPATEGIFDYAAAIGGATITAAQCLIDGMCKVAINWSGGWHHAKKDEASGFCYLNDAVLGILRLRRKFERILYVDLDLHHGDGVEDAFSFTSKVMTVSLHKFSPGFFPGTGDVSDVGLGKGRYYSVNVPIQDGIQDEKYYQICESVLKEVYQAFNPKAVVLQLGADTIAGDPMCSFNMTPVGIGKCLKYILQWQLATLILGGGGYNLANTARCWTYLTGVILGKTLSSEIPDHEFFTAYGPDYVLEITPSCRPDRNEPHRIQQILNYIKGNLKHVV
Excerpt: as §1

TACE (ADAM-17) = biological target: T3, TACE (ADAM-17) (Homo sapiens, UniProt P78536); assay: TACE inhibitor screening kit; format: biochemical
T3 construct: purchased Sigma-Aldrich (Saint Louis, MO)
Excerpt: as §1

ColQ1 = ColQ1 (Bacillus cereus, UniProt B9J3S4); assay: Ex vivo pig-skin model, hydroxyproline quantification; design: species or system B. cereus; conditions: pig-skin explants, 300 nM ColQ1, defined concentrations of compound, vs control
Excerpt: We established an ex vivo model based on pig skin to address the impact of our inhibitors on living mammalian tissue and on the contained collagen as the natural substrate of collagenase. We challenged the skin, prepared from the ear of freshly slaughtered pigs, with pure ColQ1 from B. cereus to degrade collagen. We assessed the activity of ColQ1 by quantifying the formation of hydroxyproline as an indicator for collagen turnover (Figure 4). Optimization of the assay conditions for the model consisted of examining different buffer conditions and different protein concentrations (Figures S1 and S2). To evaluate the potential effect of 25 on collagen turnover, we incubated the skin with ColQ1 in the absence and presence of defined concentrations of this compound. […] The good performance of our inhibitors in this model is a sound starting point for their subsequent testing under in vivo conditions. We expect that our inhibitors will accelerate the in vivo healing process, by preventing the distribution of infection. […]
Skin explants were obtained from freshly slaughtered pig ears, which were supplied by a local slaughterhouse. […] Absorbance was measured using a PHERAstar plate reader (BMG Labtech). The absorbance values were converted into the hydroxyproline concentration (μg/mL) using the calibration curve of hydroxyproline as a reference (Figure S3).

in vitro = conditions: human, HEK293 cells (embryonal kidney)
LasB = LasB (Pseudomonas aeruginosa, UniProt Q02RJ6); assay: biochemical; conditions: LasB IC50, FRET-based assay
Chain of LasB (Q02RJ6 198-498): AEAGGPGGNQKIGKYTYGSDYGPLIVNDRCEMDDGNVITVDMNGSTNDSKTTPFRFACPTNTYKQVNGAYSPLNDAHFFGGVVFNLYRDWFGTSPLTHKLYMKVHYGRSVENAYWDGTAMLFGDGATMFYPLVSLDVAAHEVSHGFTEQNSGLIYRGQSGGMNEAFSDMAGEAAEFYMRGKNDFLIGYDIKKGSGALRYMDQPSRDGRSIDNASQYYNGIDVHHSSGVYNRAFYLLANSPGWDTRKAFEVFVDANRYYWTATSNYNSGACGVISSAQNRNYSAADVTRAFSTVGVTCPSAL

Chain of peptidase domain of ColH (ColH-PD) (Q46085 331-721 limits assumed): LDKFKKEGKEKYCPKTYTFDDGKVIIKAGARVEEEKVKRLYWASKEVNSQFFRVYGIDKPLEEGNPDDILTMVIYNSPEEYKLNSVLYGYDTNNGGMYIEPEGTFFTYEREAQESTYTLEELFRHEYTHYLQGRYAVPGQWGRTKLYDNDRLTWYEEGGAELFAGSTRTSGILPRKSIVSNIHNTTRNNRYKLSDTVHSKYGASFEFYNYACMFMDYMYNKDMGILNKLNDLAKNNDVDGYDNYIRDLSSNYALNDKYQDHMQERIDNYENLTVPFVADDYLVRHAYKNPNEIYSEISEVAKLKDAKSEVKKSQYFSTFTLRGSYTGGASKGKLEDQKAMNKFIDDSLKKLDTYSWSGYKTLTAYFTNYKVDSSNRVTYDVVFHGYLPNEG
Chain of MMP-8 (P22894 101-467): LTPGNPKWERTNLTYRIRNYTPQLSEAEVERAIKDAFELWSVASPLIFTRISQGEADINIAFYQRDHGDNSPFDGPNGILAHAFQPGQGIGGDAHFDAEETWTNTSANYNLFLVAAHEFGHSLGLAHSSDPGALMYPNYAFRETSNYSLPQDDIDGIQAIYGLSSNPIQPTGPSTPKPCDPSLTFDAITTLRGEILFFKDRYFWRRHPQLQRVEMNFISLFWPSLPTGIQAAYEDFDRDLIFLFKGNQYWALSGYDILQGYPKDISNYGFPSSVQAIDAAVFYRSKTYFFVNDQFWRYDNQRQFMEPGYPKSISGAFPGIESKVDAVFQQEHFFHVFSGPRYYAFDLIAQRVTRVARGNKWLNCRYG
Chain of ColQ1 (B9J3S4 94-965): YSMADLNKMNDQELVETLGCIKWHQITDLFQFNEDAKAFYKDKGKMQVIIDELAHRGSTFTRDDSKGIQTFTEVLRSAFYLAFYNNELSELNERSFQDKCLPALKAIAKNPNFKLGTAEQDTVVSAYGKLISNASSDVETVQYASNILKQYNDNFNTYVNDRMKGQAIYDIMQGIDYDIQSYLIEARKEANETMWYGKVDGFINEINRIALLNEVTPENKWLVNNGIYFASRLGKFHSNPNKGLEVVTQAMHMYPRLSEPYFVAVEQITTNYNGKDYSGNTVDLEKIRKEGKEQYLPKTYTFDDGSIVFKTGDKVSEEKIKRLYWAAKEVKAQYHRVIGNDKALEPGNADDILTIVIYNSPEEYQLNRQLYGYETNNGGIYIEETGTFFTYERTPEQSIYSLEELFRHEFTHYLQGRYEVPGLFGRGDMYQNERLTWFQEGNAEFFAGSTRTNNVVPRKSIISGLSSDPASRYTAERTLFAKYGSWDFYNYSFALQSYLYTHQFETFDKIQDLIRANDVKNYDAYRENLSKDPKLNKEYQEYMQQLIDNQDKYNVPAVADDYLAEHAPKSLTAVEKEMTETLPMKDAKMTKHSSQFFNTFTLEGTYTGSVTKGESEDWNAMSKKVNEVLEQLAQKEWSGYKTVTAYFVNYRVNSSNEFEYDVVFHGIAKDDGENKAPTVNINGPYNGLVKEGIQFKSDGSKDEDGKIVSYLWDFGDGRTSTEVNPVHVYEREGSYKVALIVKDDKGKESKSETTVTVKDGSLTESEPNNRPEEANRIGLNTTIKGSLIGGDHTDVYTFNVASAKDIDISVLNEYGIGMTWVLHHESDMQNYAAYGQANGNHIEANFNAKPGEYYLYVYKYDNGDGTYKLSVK
Chain of peptidase domain of ColT (ColT-PD) (Q899Y1 340-731 limits assumed): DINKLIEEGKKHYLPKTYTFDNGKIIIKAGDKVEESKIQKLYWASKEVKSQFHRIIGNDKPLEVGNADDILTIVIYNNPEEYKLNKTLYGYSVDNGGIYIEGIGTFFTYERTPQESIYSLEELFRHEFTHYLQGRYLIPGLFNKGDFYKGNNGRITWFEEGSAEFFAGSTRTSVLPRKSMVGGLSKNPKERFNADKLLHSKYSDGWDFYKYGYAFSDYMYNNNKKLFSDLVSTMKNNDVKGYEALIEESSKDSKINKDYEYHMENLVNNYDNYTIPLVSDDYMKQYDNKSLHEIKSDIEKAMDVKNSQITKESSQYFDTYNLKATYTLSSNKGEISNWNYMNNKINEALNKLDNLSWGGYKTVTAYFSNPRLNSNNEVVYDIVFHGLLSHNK
T3 sequence (P78536 215-824): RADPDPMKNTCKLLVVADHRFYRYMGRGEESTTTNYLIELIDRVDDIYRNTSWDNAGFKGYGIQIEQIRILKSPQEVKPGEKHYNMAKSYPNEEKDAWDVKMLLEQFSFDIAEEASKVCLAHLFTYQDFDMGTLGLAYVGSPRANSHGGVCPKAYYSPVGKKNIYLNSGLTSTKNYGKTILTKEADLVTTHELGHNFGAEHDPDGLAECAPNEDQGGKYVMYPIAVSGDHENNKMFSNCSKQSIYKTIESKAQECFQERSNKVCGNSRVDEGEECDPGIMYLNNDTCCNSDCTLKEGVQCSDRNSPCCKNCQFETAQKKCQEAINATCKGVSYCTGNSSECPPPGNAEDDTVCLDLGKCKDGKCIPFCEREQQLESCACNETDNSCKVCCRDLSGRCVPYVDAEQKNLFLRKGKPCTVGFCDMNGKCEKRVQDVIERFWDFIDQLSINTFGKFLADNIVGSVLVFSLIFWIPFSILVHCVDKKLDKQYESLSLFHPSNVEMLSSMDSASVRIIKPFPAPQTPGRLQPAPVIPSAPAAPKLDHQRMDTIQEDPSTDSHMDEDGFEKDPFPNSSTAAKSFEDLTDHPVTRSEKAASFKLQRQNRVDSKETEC

**Q.** Which results are given for CC(=O)c1ccc(N2C(=O)CC(S)C2=O)cc1 (stereo not drawn) [Compound 25, 1-(4-Acetylphenyl)-3-mercaptopyrrolidine-2,5-dione]?
**A.** IC50 [1]: 0.06 ± 0.01 µM; inhibition at 1 µM ([1]; read-out: ColH-PD % inhibition @ 1 μM): 95%; inhibition at 100 µM ([1]; read-out: ColH-PD % inhibition @ 100 μM): 96 ± 2%; inhibition at 100 µM [2]: 102 ± 3%; inhibition at 50 µM (MMP-2; 50 µM compound, read-out: MMP-2 % inh @50µM): < 10%; inhibition at 100 µM (MMP-2; read-out: MMP-2 % inhibition @ 100 μM, 100 μM compound): 14 ± 4%; inhibition at 50 µM (MMP-8; 50 µM compound, read-out: MMP-8 % inh @50µM): < 10%; inhibition at 100 µM (MMP-8; read-out: MMP-8 % inhibition @ 100 μM, 100 μM compound): 94 ± 1%; inhibition at 50 µM (MMP-14; 50 µM compound, read-out: MMP-14 % inh @50µM): < 10%; inhibition at 100 µM (MMP-14; read-out: MMP-14 % inhibition @ 100 μM, 100 μM compound): 84 ± 8%; IC50 (HDAC-8): > 100 µM; IC50 (TACE (ADAM-17)): 3.4 ± 1.2 µM; hydroxyproline released (collagenolytic activity of ColQ1) (ColQ1): significantly reduced amount of hydroxyproline released compared to control; IC50 (in vitro): > 100 µM; IC50 (LasB): 64 ± 7.5 µM
